Laboratory results taken from the supplement of paper PMC10307832.

Experiments:
Assay in all cases: relative viability (nuclei count vs DMSO), 5 days (fraction); higher = more cells survive
VX-702 + AZD7762 = compound: NC(=O)c1ccc(N(C(N)=O)c2c(F)cccc2F)nc1-c1ccc(F)cc1F [VX-702] + NC(=O)Nc1cc(-c2cccc(F)c2)sc1C(=O)N[C@H]1CCCNC1 [AZD7762] (partner 0.2 µM)
Summary of the method: (§1)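 Five library-drug doses in √10 steps were combined with a fixed anchor-drug dose, or a single drug was given alone, by pin tool to lung cancer cell lines in 1536-well plates the day after seeding. Nuclei were stained and counted after 5 days. Relative viability is the nuclei count in treated wells over that in vehicle wells, taken as the median of duplicate plates.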

Dabrafenib + OSI-027 = compound: CC(C)(C)c1nc(-c2cccc(NS(=O)(=O)c3c(F)cccc3F)c2F)c(-c2ccnc(N)n2)s1 [Dabrafenib] + COc1cccc2cc(-c3nc([C@H]4CC[C@H](C(=O)O)CC4)n4ncnc(N)c34)[nH]c12 [OSI-027] (partner 0.5 µM)
Summary of the method: as §1

Dabrafenib + Dasatinib = compound: CC(C)(C)c1nc(-c2cccc(NS(=O)(=O)c3c(F)cccc3F)c2F)c(-c2ccnc(N)n2)s1 [Dabrafenib] + Cc1nc(Nc2ncc(C(=O)Nc3c(C)cccc3Cl)s2)cc(N2CCN(CCO)CC2)n1 [Dasatinib] (partner 0.075 µM)
Summary of the method: as §1

Dabrafenib + Pemetrexed = compound: CC(C)(C)c1nc(-c2cccc(NS(=O)(=O)c3c(F)cccc3F)c2F)c(-c2ccnc(N)n2)s1 [Dabrafenib] + Nc1nc2[nH]cc(CCc3ccc(C(=O)N[C@@H](CCC(=O)O)C(=O)O)cc3)c2c(=O)[nH]1 [Pemetrexed] (partner 0.2 µM)
Summary of the method: as §1

Dabrafenib + Vorinostat = compound: CC(C)(C)c1nc(-c2cccc(NS(=O)(=O)c3c(F)cccc3F)c2F)c(-c2ccnc(N)n2)s1 [Dabrafenib] + O=C(CCCCCCC(=O)Nc1ccccc1)NO [Vorinostat] (partner 1 µM)
Summary of the method: as §1

VX-702 + Trametinib = compound: NC(=O)c1ccc(N(C(N)=O)c2c(F)cccc2F)nc1-c1ccc(F)cc1F [VX-702] + CC(=O)Nc1cccc(-n2c(=O)n(C3CC3)c(=O)c3c(Nc4ccc(I)cc4F)n(C)c(=O)c(C)c32)c1 [Trametinib] (partner 0.02 µM)
Summary of the method: as §1

For SW 900, which relative viability (VX-702 + AZD7762; first compound 0.02 µM) is on record?
Its relative viability is 0.611.

What about the relative viability (VX-702 + AZD7762; first compound 0.2 µM) of the same cell line?
The relative viability was 0.502.

What about the relative viability (VX-702 + AZD7762; first compound 0.6325 µM) of the same cell line?
The relative viability was 0.492.

What about the relative viability (VX-702 + AZD7762; first compound 2 µM) of the same cell line?
The relative viability was 0.572.

And the relative viability (Dabrafenib + OSI-027; first compound 0.009487 µM)?
The relative viability was 0.619.

And the relative viability (Dabrafenib + OSI-027; first compound 0.03 µM)?
Its relative viability is 0.466.

And the relative viability (Dabrafenib + OSI-027; first compound 0.3 µM)?
Its relative viability is 0.679.

And the relative viability (Dabrafenib + Dasatinib; first compound 0.009487 µM)?
The relative viability was 0.581.

What about the relative viability (Dabrafenib + Dasatinib; first compound 0.03 µM) of the same cell line?
The relative viability was 0.371.

What about the relative viability (Dabrafenib + Dasatinib; first compound 0.3 µM) of the same cell line?
Its relative viability is 0.705.

And the relative viability (Dabrafenib + Pemetrexed; first compound 0.009487 µM)?
The relative viability was 0.494.

What about the relative viability (Dabrafenib + Pemetrexed; first compound 0.09487 µM) of the same cell line?
Its relative viability is 0.477.

And the relative viability (Dabrafenib + Pemetrexed; first compound 0.3 µM)?
The relative viability was 0.45.

And the relative viability (Dabrafenib + Vorinostat; first compound 0.009487 µM)?
Its relative viability is 0.455.

What about the relative viability (Dabrafenib + Vorinostat; first compound 0.09487 µM) of the same cell line?
Its relative viability is 0.714.

What about the relative viability (Dabrafenib + Vorinostat; first compound 0.3 µM) of the same cell line?
Its relative viability is 0.596.

And the relative viability (VX-702 + Trametinib; first compound 0.02 µM)?
The relative viability was 0.775.

What about the relative viability (VX-702 + Trametinib; first compound 0.2 µM) of the same cell line?
The relative viability was 0.871.

What about the relative viability (VX-702 + Trametinib; first compound 0.6325 µM) of the same cell line?
The relative viability was 0.856.

What about the relative viability (VX-702 + Trametinib; first compound 2 µM) of the same cell line?
Its relative viability is 0.795.
